How the values were obtained:
[1] = tested on: PC-3 prostate tumor xenograft; test: Tumor growth in PC-3 mouse xenograft model; assay type: in vivo; details: oral gavage 1.25 mg/kg BID x 21 days, or 7.5 or 15 mg/kg q7d x 3
Method: The effects of the compound of structure (I) on tumor growth in the PC-3 mouse xenograft model were also assessed. PC-3 prostate tumor cells were maintained in vitro as a monolayer culture in Ham's F12K medium supplemented with 10% fetal bovine serum at 37° C. in an atmosphere of 5% CO2 in air. The cells in an exponential growth phase were harvested and counted for tumor inoculation. Each mouse was inoculated subcutaneously at the right flank region with PC-3 prostate tumor cells (5×10^6 cells) in 0.1 ml of PBS for tumor development. When the mean tumor size reached approximately 100 mm^3, the mice were randomized and divided into study groups. Compound of structure (I) was administered at 1.25 mg/kg twice daily (BID) for 21 days, or 7.5 mg/kg or 15 mg/kg once weekly (q7d×3) by oral gavage. Tumor volumes were measured twice weekly in two dimensions using a caliper, and the volume expressed in mm^3 using the formula: V=(L×W×W)/2, where V is tumor volume, L is tumor length (the longest tumor dimension) and W is tumor width (the longest tumor dimension perpendicular to L).

[2] = Phase I dose-escalation study in patients with advanced solid tumors: plasma PK; assay type: in vivo, human; details: any timepoint
Method: Plasma PK parameters of compound of structure (I) and alvocidib were evaluated in Cohorts 1-5 at specific timepoints during the study. Blood was collected from patients in Cohorts 1-5 according to the pharmacokinetic sampling schedule described in Table 9.
PK parameters were estimated using standard noncompartmental methods. Actual sample collection times were used rather than scheduled collection times. Plasma concentrations below the limit of quantification were treated as 0. Imbedded missing plasma concentrations (e.g., missing values between two observed values) were estimated using linear […]. This is consistent with using the trapezoidal rule to calculate AUC. Other missing plasma concentrations were excluded from calculations to estimate PK parameters.

[3] = Phase I dose-escalation study in patients with advanced solid tumors: safety; assay type: in vivo, human
Description: Patients with advanced metastatic or progressive solid tumors who were refractory to, or intolerant of, established therapy known to provide clinical benefit for their condition were enrolled. Cohorts of 3-6 patients each received escalating doses of compound of structure (I) using a modified Fibonacci dose escalation approach. Once the optimal dose has been established, additional patients may be enrolled to confirm safety and to explore efficacy. Twenty additional patients will be enrolled in an expansion cohort at the maximum tolerated dose (MTD).
This is an ongoing Phase 1, open-label, dose-escalation, safety, PK and PD study. The proposed starting dose and schedule for oral compound of structure (I) was a 1-mg flat dose once daily (QD) for 14 days followed by a 7-day drug-free recovery period (each cycle=21 days). In the absence of dose-limiting toxicities (DLTs) in the first cohort of at least 3 patients, the dose was increased using a modified Fibonacci dose escalation scheme, and BID dosing commenced according to the dose escalation schedule described in Table 8. The first patient in cohort 6 has been enrolled at 8 mg compound of structure (I) BID. The baseline demographics of the first 14 patients enrolled in the study are described in Table 6.
DLT was defined as any one of the following events observed in cycle 1, regardless of investigator attribution, unless there was a clear alternative explanation: • 1. Grade 3 or greater febrile neutropenia • 2. Grade 4 neutropenia for ≥7 consecutive days • 3. Grade 4 thrombocytopenia or Grade 3 thrombocytopenia with clinically significant bleeding or that requires a platelet transfusion • 4. Grade 3 or 4 nonhematologic AEs will be considered dose limiting, regardless of duration aside from the specific parameters described herein • 5. Grade 4 nausea, vomiting, or diarrhea, regardless of duration • 6. Dosing delays≥1 week due to treatment-emergent adverse events (TEAEs) or related severe laboratory test values • 7. Any AST and ALT elevation>3× ULN (if baseline value was normal) or ≥3× the baseline value (if baseline value was abnormal) accompanied by serum bilirubin levels>2×ULN • 8. […] Any Grade≥3 elevations in creatinine • 10. Any Grade 5 toxicity

[4] = tested on: subcutaneous 22Rv1 human prostate cancer xenograft; test: Efficacy study in the 22Rv1 xenograft prostate cancer model; assay type: in vivo, male BALB/c nude mice; details: castrated mice, 21 days; doses per Table 1: Cmpd Str (I) 1.25 mg/kg p.o. BID or 10 mg/kg p.o. Q7D; enzalutamide 30 mg/kg p.o. QD; docetaxel 10 mg/kg i.p. Q7D; ABT199 100 mg/kg p.o. QD
Method: The objective of this study was to evaluate the in vivo therapeutic efficacy of the compound of structure (I) or a pharmaceutically acceptable salt or zwitterionic form thereof in the treatment of a subcutaneous 22Rv1 human prostate cancer xenograft model. For the 22Rv1 model, efficacy of the compound of structure (I) was evaluated in male BALB/c nude mice. Cobalt-60 irradiation of all mice was performed 2 days before the tumor inoculation at 2 Gy (1 Gy=100 rads). Each mouse was inoculated at the right flank with 1×10^7 tumor cells in 0.1 ml of PBS mixed with matrigel (1:1). The date of tumor cell inoculation was denoted as day 0.
Castration was performed when mean tumor volume reached approximately 200 mm^3. Mice were anesthetized with ketamine/xylazine; surgical castration was performed via a midline scrotal incision allowing bilateral access to the hemiscrotal contents; after exposing each testicle, a 6-0 Vicryl suture was used to ligate the spermatic cord and then remove the testicle; the scrota and skin was then closed with 6-0 Vicryl suture, separately. Treatments started when the mean tumor volume re-grew to approximately 100 mm^3.
After tumors reached the appropriate size, approximately 100-200 mm^3, mice were randomized into treatment groups 1-11, which are shown in Table 1. Each treatment was administered starting on day 15, at a dosing volume of 5 μL/g and continued for 21 days (or 22 days for groups with treatment at Q7D). For groups with treatment at Q7D×3 weeks, dosing was performed on days 1, 8, and 15 post-randomization, and the study was terminated on day 22 post randomization. The combined treatment intervals were each 0 h, and the interval for BID was 8 h. Randomization was performed based on the “Matched distribution” method (StudyDirector™ software, version 3.1.399.19) randomized block design.
Tumor volumes were measured twice per week after randomization in two dimensions using a caliper, and the volume was expressed in mm^3 using the formula: “V=(L×W×W)/2,” where V is tumor volume, L is tumor length (the longest tumor dimension) and W is tumor width (the longest tumor dimension perpendicular to L). The average tumor volume for each group, as a percentage of the average tumor volume of the control group (group 1), is shown in FIG. 6. […] The percentage shown in FIG. 7 (% T/C) is calculated as mean(T)/mean(C)*100%, with “T” representing tumor volume and “C” representing tumor volume for group 1.
T and C are the mean tumor volume (or weight) of the treated groups and control group (group 1), respectively, on a given day. The percentages shown in FIG. 10 are calculated as % ΔT/C=(mean(T)−mean(T0))/(mean(C)−mean(C0))*100%, with “0” indicating the initial timepoint.

[5] = patients, oral, Cohorts 1-5 (1 mg QD to 6 mg BID), to date

With CN1CC[C@H](c2c(OP(=O)(O)O)cc(O)c3c(=O)cc(-c4ccccc4Cl)oc23)[C@H](O)C1 [compound of structure (I)] as the molecule, how does the “tumor growth in PC-3 mouse xenograft model” value [1] read?
Its value is “inhibited tumor growth”.

What about the “detection of compound of structure (I) in plasma” value ([2]; Cohort 2, 1 mg BID oral, any sample) of the same molecule?
The value was “no compound of structure (I) was detected”.

And the “detectable compound of structure (I) in plasma” value ([2]; across cohorts (FIGS. 24G, 24H), oral Formulation No. 401-01)?
Its value is “no detectable compound of structure (I)”.

What about the “Treatment-emergent adverse events, Grade 3: Anemia” value ([3]; number of patients (%), N = 14) of the same molecule?
Its value is 1 (7%).

What about the “Treatment-emergent adverse events, Grade 3: Chest Pain” value ([3]; number of patients (%), N = 14) of the same molecule?
Its value is 1 (7%).

What about the “Treatment-emergent adverse events, Grade 3: Haematuria” value ([3]; number of patients (%), N = 14) of the same molecule?
Its value is 1 (7%).

What about the “Treatment-emergent adverse events, Grade 3: Hypotension” value ([3]; number of patients (%), N = 14) of the same molecule?
Its value is 1 (7%).

What about the “Treatment-emergent adverse events, Grade 3: Hypoxia” value ([3]; number of patients (%), N = 14) of the same molecule?
Its value is 1 (7%).

What about the “Treatment-emergent adverse events, Grade 3: Malignant Pleural Effusion” value ([3]; number of patients (%), N = 14) of the same molecule?
The value was 1 (7%).

What about the “Treatment-emergent adverse events, Grade 3: Pain” value ([3]; number of patients (%), N = 14) of the same molecule?
The value was 1 (7%).

And the “Treatment-emergent adverse events, Grade 3: Swelling” value ([3]; number of patients (%), N = 14)?
Its value is 1 (7%).

And the “dose-limiting diarrhea or neutropenia” value [3, 5]?
The value was “no evidence of dose-limiting diarrhea or neutropenia”.

And the unexplained toxicity [3, 5]?
Its unexplained toxicity is “no unexplained toxicity”.

And the “anti-cancer activity in the 22Rv1 xenograft model (tumor growth)” value [4]?
Its value is “modest activity”.
